According to PubChem BioAssay (NCI):
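Tested at 5 concentrations; 48 h exposure; 96-well plates; endpoints linearly interpolated, else capped at highest concentration. Here, GI50 denotes the concentration required for 50% inhibition of growth. TGI: total growth inhibition.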

test system: OVCAR-3 ovarian; experiment: DTP human tumour cell line panel, 48 h

CN(C)C1(N(C)C)Oc2c(c(=O)n(C)c(=O)n2C)C(c2ccccc2)C1(F)F (stereo unspecified) and CC(C)(C)c1ccc(O)c(C(O)c2ccncc2)c1 (stereo unspecified) cannot be ordered by TGI: over 100 µM for the first, over 100 µM for the second.

In the case of COc1ccc2[nH]cc(C3(c4c[nH]c5ccc(OC)cc45)C(=O)Nc4ccc(F)cc43)c2c1, the TGI is reported as 4.42 µM.

COc1ccc2[nH]cc(C3(c4c[nH]c5ccc(OC)cc45)C(=O)Nc4ccc(F)cc43)c2c1 gave a GI50 of 2.15 µM.

test system: BT-549 breast; experiment: DTP human tumour cell line panel, 48 h

Going from Cn1nc(C(=O)N2CC(CCl)c3c2cc(N)c2ccccc32)cc1NC(=O)Nc1cc(C(=O)N2CC(CCl)c3c2cc(N)c2ccccc32)nn1C (stereo unspecified) to COc1ccc2[nH]cc(C3(c4c[nH]c5ccc(OC)cc45)C(=O)Nc4ccc(F)cc43)c2c1, the TGI rises from 0.523 µM to 11.7 µM (22-fold).

CN(C)C1(N(C)C)Oc2c(c(=O)n(C)c(=O)n2C)C(c2ccccc2)C1(F)F (stereo unspecified) and CC(C)(C)c1ccc(O)c(C(O)c2ccncc2)c1 (stereo unspecified) cannot be ordered by TGI: over 100 µM for the first, over 100 µM for the second.

With CC1CCC(C(C)C)C(OC(=O)NCn2cc(-c3ccccc3)nn2)C1 (stereo unspecified) the TGI was over 100 µM.

Going from COc1ccc2[nH]cc(C3(c4c[nH]c5ccc(OC)cc45)C(=O)Nc4ccc(F)cc43)c2c1 to Oc1cc2cccc[n+]2c2cc(Cl)ccc12, the GI50 rises from 3.21 µM to 78 µM (24-fold).

test system: HCT-15 colon; experiment: DTP human tumour cell line panel, 48 h

Compared with Cn1nc(C(=O)N2CC(CCl)c3c2cc(N)c2ccccc32)cc1NC(=O)Nc1cc(C(=O)N2CC(CCl)c3c2cc(N)c2ccccc32)nn1C (stereo unspecified), COc1ccc2[nH]cc(C3(c4c[nH]c5ccc(OC)cc45)C(=O)Nc4ccc(F)cc43)c2c1 is lower in TGI: over 100 µM for the first, 20.2 µM for the second.

CN(C)C1(N(C)C)Oc2c(c(=O)n(C)c(=O)n2C)C(c2ccccc2)C1(F)F (stereo unspecified) and Cc1ccc(-n2c(N)c(C#N)c3[nH]nc(N)c3c2=O)cc1 cannot be ordered by TGI: over 100 µM for the first, over 100 µM for the second.

CC(C)(C)c1ccc(O)c(C(O)c2ccncc2)c1 (stereo unspecified) and CC1CCC(C(C)C)C(OC(=O)NCn2cc(-c3ccccc3)nn2)C1 (stereo unspecified) cannot be ordered by TGI: over 100 µM for the first, over 100 µM for the second.

COc1ccc2[nH]cc(C3(c4c[nH]c5ccc(OC)cc45)C(=O)Nc4ccc(F)cc43)c2c1 was tested, and the GI50 was 4.12 µM.

test system: SF-268 CNS; experiment: DTP human tumour cell line panel, 48 h

CN(C)C1(N(C)C)Oc2c(c(=O)n(C)c(=O)n2C)C(c2ccccc2)C1(F)F (stereo unspecified) and Cc1ccc(-n2c(N)c(C#N)c3[nH]nc(N)c3c2=O)cc1 cannot be ordered by TGI: over 100 µM for the first, over 100 µM for the second.

Going from COc1ccc2[nH]cc(C3(c4c[nH]c5ccc(OC)cc45)C(=O)Nc4ccc(F)cc43)c2c1 to CC(C)(C)c1ccc(O)c(C(O)c2ccncc2)c1 (stereo unspecified), the TGI rises from 12.7 µM to over 100 µM.

CC1CCC(C(C)C)C(OC(=O)NCn2cc(-c3ccccc3)nn2)C1 (stereo unspecified) showed a TGI of over 100 µM.

First: COc1ccc2[nH]cc(C3(c4c[nH]c5ccc(OC)cc45)C(=O)Nc4ccc(F)cc43)c2c1
Second: Oc1cc2cccc[n+]2c2cc(Cl)ccc12
The GI50 of the first is 18-fold lower: 3.17 µM for the first, 56.3 µM for the second.

test system: SNB-19 CNS; experiment: DTP human tumour cell line panel, 48 h

Going from Cn1nc(C(=O)N2CC(CCl)c3c2cc(N)c2ccccc32)cc1NC(=O)Nc1cc(C(=O)N2CC(CCl)c3c2cc(N)c2ccccc32)nn1C (stereo unspecified) to COc1ccc2[nH]cc(C3(c4c[nH]c5ccc(OC)cc45)C(=O)Nc4ccc(F)cc43)c2c1, the TGI rises from 2.32 µM to 14.6 µM (6.3-fold).

CN(C)C1(N(C)C)Oc2c(c(=O)n(C)c(=O)n2C)C(c2ccccc2)C1(F)F (stereo unspecified) and Cc1ccc(-n2c(N)c(C#N)c3[nH]nc(N)c3c2=O)cc1 cannot be ordered by TGI: over 100 µM for the first, over 100 µM for the second.

CC1CCC(C(C)C)C(OC(=O)NCn2cc(-c3ccccc3)nn2)C1 (stereo unspecified) was tested, and the TGI was over 100 µM.

COc1ccc2[nH]cc(C3(c4c[nH]c5ccc(OC)cc45)C(=O)Nc4ccc(F)cc43)c2c1 showed a GI50 of 3.28 µM.

test system: COLO 205 colon; experiment: DTP human tumour cell line panel, 48 h

CN(C)C1(N(C)C)Oc2c(c(=O)n(C)c(=O)n2C)C(c2ccccc2)C1(F)F (stereo unspecified) and Cc1ccc(-n2c(N)c(C#N)c3[nH]nc(N)c3c2=O)cc1 cannot be ordered by TGI: over 100 µM for the first, over 100 µM for the second.

Going from COc1ccc2[nH]cc(C3(c4c[nH]c5ccc(OC)cc45)C(=O)Nc4ccc(F)cc43)c2c1 to CC(C)(C)c1ccc(O)c(C(O)c2ccncc2)c1 (stereo unspecified), the TGI rises from 3.05 µM to over 100 µM.

Compound CC1CCC(C(C)C)C(OC(=O)NCn2cc(-c3ccccc3)nn2)C1 (stereo unspecified) has a TGI of over 100 µM.

First: COc1ccc2[nH]cc(C3(c4c[nH]c5ccc(OC)cc45)C(=O)Nc4ccc(F)cc43)c2c1
Second: Oc1cc2cccc[n+]2c2cc(Cl)ccc12
The GI50 of the first is 34-fold lower: 1.69 µM for the first, 56.9 µM for the second.

test system: HL-60(TB) leukemia; experiment: DTP human tumour cell line panel, 48 h

CC1CCC(C(C)C)C(OC(=O)NCn2cc(-c3ccccc3)nn2)C1 (stereo unspecified) and Cc1ccc(-n2c(N)c(C#N)c3[nH]nc(N)c3c2=O)cc1 cannot be ordered by TGI: over 100 µM for the first, over 100 µM for the second.

test system: CAKI-1 renal; experiment: DTP human tumour cell line panel, 48 h

First: Cn1nc(C(=O)N2CC(CCl)c3c2cc(N)c2ccccc32)cc1NC(=O)Nc1cc(C(=O)N2CC(CCl)c3c2cc(N)c2ccccc32)nn1C (stereo unspecified)
Second: COc1ccc2[nH]cc(C3(c4c[nH]c5ccc(OC)cc45)C(=O)Nc4ccc(F)cc43)c2c1
The TGI of the first is 1.7-fold lower: 6.13 µM for the first, 10.6 µM for the second.

CN(C)C1(N(C)C)Oc2c(c(=O)n(C)c(=O)n2C)C(c2ccccc2)C1(F)F (stereo unspecified) and Cc1ccc(-n2c(N)c(C#N)c3[nH]nc(N)c3c2=O)cc1 cannot be ordered by TGI: over 100 µM for the first, over 100 µM for the second.

CC(C)(C)c1ccc(O)c(C(O)c2ccncc2)c1 (stereo unspecified) and CC1CCC(C(C)C)C(OC(=O)NCn2cc(-c3ccccc3)nn2)C1 (stereo unspecified) cannot be ordered by TGI: over 100 µM for the first, over 100 µM for the second.

Going from COc1ccc2[nH]cc(C3(c4c[nH]c5ccc(OC)cc45)C(=O)Nc4ccc(F)cc43)c2c1 to Oc1cc2cccc[n+]2c2cc(Cl)ccc12, the GI50 rises from 2.29 µM to 65.9 µM (29-fold).

test system: MCF7 breast; experiment: DTP human tumour cell line panel, 48 h

CN(C)C1(N(C)C)Oc2c(c(=O)n(C)c(=O)n2C)C(c2ccccc2)C1(F)F (stereo unspecified) and Cc1ccc(-n2c(N)c(C#N)c3[nH]nc(N)c3c2=O)cc1 cannot be ordered by TGI: over 100 µM for the first, over 100 µM for the second.

Compared with COc1ccc2[nH]cc(C3(c4c[nH]c5ccc(OC)cc45)C(=O)Nc4ccc(F)cc43)c2c1, CC1CCC(C(C)C)C(OC(=O)NCn2cc(-c3ccccc3)nn2)C1 (stereo unspecified) is higher in TGI: 10.1 µM for the first, over 100 µM for the second.

Compound COc1ccc2[nH]cc(C3(c4c[nH]c5ccc(OC)cc45)C(=O)Nc4ccc(F)cc43)c2c1 has a GI50 of 2.72 µM.

test system: HCT-116 colon; experiment: DTP human tumour cell line panel, 48 h

CN(C)C1(N(C)C)Oc2c(c(=O)n(C)c(=O)n2C)C(c2ccccc2)C1(F)F (stereo unspecified) and Cc1ccc(-n2c(N)c(C#N)c3[nH]nc(N)c3c2=O)cc1 cannot be ordered by TGI: over 100 µM for the first, over 100 µM for the second.

Going from COc1ccc2[nH]cc(C3(c4c[nH]c5ccc(OC)cc45)C(=O)Nc4ccc(F)cc43)c2c1 to CC(C)(C)c1ccc(O)c(C(O)c2ccncc2)c1 (stereo unspecified), the TGI rises from 3.16 µM to over 100 µM.

CC1CCC(C(C)C)C(OC(=O)NCn2cc(-c3ccccc3)nn2)C1 (stereo unspecified) showed a TGI of over 100 µM.

First: COc1ccc2[nH]cc(C3(c4c[nH]c5ccc(OC)cc45)C(=O)Nc4ccc(F)cc43)c2c1
Second: Oc1cc2cccc[n+]2c2cc(Cl)ccc12
The GI50 of the first is 34-fold lower: 1.76 µM for the first, 60.3 µM for the second.

test system: LOX IMVI melanoma; experiment: DTP human tumour cell line panel, 48 h

CN(C)C1(N(C)C)Oc2c(c(=O)n(C)c(=O)n2C)C(c2ccccc2)C1(F)F (stereo unspecified) and Cc1ccc(-n2c(N)c(C#N)c3[nH]nc(N)c3c2=O)cc1 cannot be ordered by TGI: over 100 µM for the first, over 100 µM for the second.

First: COc1ccc2[nH]cc(C3(c4c[nH]c5ccc(OC)cc45)C(=O)Nc4ccc(F)cc43)c2c1
Second: CC1CCC(C(C)C)C(OC(=O)NCn2cc(-c3ccccc3)nn2)C1 (stereo unspecified)
The TGI of the first is lower: 3.26 µM for the first, over 100 µM for the second.

COc1ccc2[nH]cc(C3(c4c[nH]c5ccc(OC)cc45)C(=O)Nc4ccc(F)cc43)c2c1 gave a GI50 of 1.65 µM.

test system: SF-295 CNS; experiment: DTP human tumour cell line panel, 48 h

First: Cn1nc(C(=O)N2CC(CCl)c3c2cc(N)c2ccccc32)cc1NC(=O)Nc1cc(C(=O)N2CC(CCl)c3c2cc(N)c2ccccc32)nn1C (stereo unspecified)
Second: COc1ccc2[nH]cc(C3(c4c[nH]c5ccc(OC)cc45)C(=O)Nc4ccc(F)cc43)c2c1
The TGI of the first is higher: over 100 µM for the first, 4.85 µM for the second.

CN(C)C1(N(C)C)Oc2c(c(=O)n(C)c(=O)n2C)C(c2ccccc2)C1(F)F (stereo unspecified) and Cc1ccc(-n2c(N)c(C#N)c3[nH]nc(N)c3c2=O)cc1 cannot be ordered by TGI: over 100 µM for the first, over 100 µM for the second.

CC1CCC(C(C)C)C(OC(=O)NCn2cc(-c3ccccc3)nn2)C1 (stereo unspecified) showed a TGI of over 100 µM.

For COc1ccc2[nH]cc(C3(c4c[nH]c5ccc(OC)cc45)C(=O)Nc4ccc(F)cc43)c2c1, the GI50 was 1.79 µM.

test system: SN12C renal; experiment: DTP human tumour cell line panel, 48 h

Going from C=CCn1c(C)nc2ccc(Nc3nc(Nc4ccc5nc(C)n(CC=C)c5c4)c4ccccc4n3)cc21 to COc1ccc2[nH]cc(C3(c4c[nH]c5ccc(OC)cc45)C(=O)Nc4ccc(F)cc43)c2c1, the GI50 rises from 1.62 µM to 2.97 µM (1.8-fold).

Compound Oc1cc2cccc[n+]2c2cc(Cl)ccc12 has a GI50 of 45.2 µM.

Compared with C=CCn1c(C)nc2ccc(Nc3nc(Nc4ccc5nc(C)n(CC=C)c5c4)c4ccccc4n3)cc21, COc1ccc2[nH]cc(C3(c4c[nH]c5ccc(OC)cc45)C(=O)Nc4ccc(F)cc43)c2c1 is 4.1-fold higher in TGI: 2.98 µM for the first, 12.1 µM for the second.

In the case of CC1CCC(C(C)C)C(OC(=O)NCn2cc(-c3ccccc3)nn2)C1 (stereo unspecified), the TGI is reported as over 100 µM.

test system: SF-539 CNS; experiment: DTP human tumour cell line panel, 48 h

Compared with C=CCn1c(C)nc2ccc(Nc3nc(Nc4ccc5nc(C)n(CC=C)c5c4)c4ccccc4n3)cc21, COc1ccc2[nH]cc(C3(c4c[nH]c5ccc(OC)cc45)C(=O)Nc4ccc(F)cc43)c2c1 is 1.9-fold higher in GI50: 1.71 µM for the first, 3.24 µM for the second.

Compared with C=CCn1c(C)nc2ccc(Nc3nc(Nc4ccc5nc(C)n(CC=C)c5c4)c4ccccc4n3)cc21, COc1ccc2[nH]cc(C3(c4c[nH]c5ccc(OC)cc45)C(=O)Nc4ccc(F)cc43)c2c1 is 3.4-fold higher in TGI: 3.12 µM for the first, 10.5 µM for the second.

CC(C)(C)c1ccc(O)c(C(O)c2ccncc2)c1 (stereo unspecified) and CC1CCC(C(C)C)C(OC(=O)NCn2cc(-c3ccccc3)nn2)C1 (stereo unspecified) cannot be ordered by TGI: over 100 µM for the first, over 100 µM for the second.

Cc1ccc(-n2c(N)c(C#N)c3[nH]nc(N)c3c2=O)cc1 gave a TGI of over 100 µM.

test system: K-562 leukemia; experiment: DTP human tumour cell line panel, 48 h

First: Cn1nc(C(=O)N2CC(CCl)c3c2cc(N)c2ccccc32)cc1NC(=O)Nc1cc(C(=O)N2CC(CCl)c3c2cc(N)c2ccccc32)nn1C (stereo unspecified)
Second: COc1ccc2[nH]cc(C3(c4c[nH]c5ccc(OC)cc45)C(=O)Nc4ccc(F)cc43)c2c1
The TGI of the first is higher: over 100 µM for the first, 5.78 µM for the second.

CN(C)C1(N(C)C)Oc2c(c(=O)n(C)c(=O)n2C)C(c2ccccc2)C1(F)F (stereo unspecified) and Cc1ccc(-n2c(N)c(C#N)c3[nH]nc(N)c3c2=O)cc1 cannot be ordered by TGI: over 100 µM for the first, over 100 µM for the second.

CC(C)(C)c1ccc(O)c(C(O)c2ccncc2)c1 (stereo unspecified) and CC1CCC(C(C)C)C(OC(=O)NCn2cc(-c3ccccc3)nn2)C1 (stereo unspecified) cannot be ordered by TGI: over 100 µM for the first, over 100 µM for the second.

Work on COc1ccc2[nH]cc(C3(c4c[nH]c5ccc(OC)cc45)C(=O)Nc4ccc(F)cc43)c2c1 yielded a GI50 of 2.24 µM.
